For the first assay, the system named is PEER. Briefly: selective drug sensitivity score (sDSS, relative to normal bone marrow) (sDSS (score)); higher = more potent and effective on the cell line relative to normal bone marrow cells. The conditions noted are these: 72 h.
`CCOC(=O)CCNc1cc(N2CCc3ccccc3CC2)nc(-c2ccccn2)n1` [GSK-J4] (top concentration 100000 nM): the “selective drug sensitivity score” value is -5.48.
On to `Cc1cc(Nc2cc(CN3CCOCC3)c3nc(C)c(Cc4ccc(Cl)cc4F)n3n2)n[nH]1` [Gandotinib] (top concentration 10000 nM), for which the “selective drug sensitivity score” value turned out to be 8.68.
Same read-out and setting: as for `NC(=O)NO` [Hydroxyurea] (top concentration 1000000 nM), the figure is 5.56.
On the same count and under the same terms, as for `Cc1ccc(NC(=O)c2ccc(CN3CCN(C)CC3)cc2)cc1Nc1nccc(-c2cccnc2)n1` [Imatinib] (top concentration 10000 nM), the figure is 12; as for `CC(C)NC[C@@H](C(=O)N1CCN(c2ncnc3c2[C@H](C)C[C@H]3O)CC1)c1ccc(Cl)cc1` [Ipatasertib] (top concentration 10000 nM), -1.6.
On the same count and under the same terms, as for `CCC(C)n1ncn(-c2ccc(N3CCN(c4ccc(OCC5COC(Cn6cncn6)(c6ccc(Cl)cc6Cl)O5)cc4)CC3)cc2)c1=O` (stereo not given) [Itraconazole] (top concentration 5000 nM), the figure is 0.88; as for `Cc1sc2c(c1C)C(c1ccc(Cl)cc1)=N[C@@H](CC(=O)OC(C)(C)C)c1nnc(C)n1-2` [JQ1] (top concentration 10000 nM), -1.88.
In the case of `CCNC(=O)c1noc(-c2cc(C(C)C)c(O)cc2O)c1-c1ccc(CN2CCOCC2)cc1` [Luminespib] (top concentration 1000 nM), the “selective drug sensitivity score” value is -3.7.
On the same count and under the same terms, as for `O=C(c1cccc(Cl)c1F)N1CCN(Cc2cccc(Nc3nccs3)n2)CC1` [MK-8745] (top concentration 10000 nM), the figure is 9.8; as for `Cc1ccc(NC(=O)c2ccc(CN3CCN(C)CC3)cc2)cc1Nc1nc(-c2cccnc2)cs1` [Masitinib] (top concentration 10000 nM), 6.62.
Turning to `CCN(CC)CCCC(C)Nc1c2ccc(Cl)cc2nc2ccc(OC)cc12` (stereo not given) [Mepacrine] (top concentration 50000 nM), the “selective drug sensitivity score” value was -5.9.
On the same count and under the same terms, the value for `COc1ccc(-c2ccc3ncc4c(c3c2)n(-c2ccc(N3CCNCC3)c(C(F)(F)F)c2)c(=O)n4C)cn1` [NVP-BGT226] (top concentration 1000 nM) was 3.42.
The same measure, in the same setting: the value for `COc1nc(N)nc2c1ncn2[C@@H]1O[C@H](CO)[C@@H](O)[C@@H]1O` [Nelarabine] (top concentration 10000 nM) was -5.52; that for `Cc1cn(-c2cc(NC(=O)c3ccc(C)c(Nc4nccc(-c5cccnc5)n4)c3)cc(C(F)(F)F)c2)cn1` [Nilotinib] (top concentration 10000 nM) was 18.1; that for `NC(=O)c1cccc2cn(-c3ccc(C4CCCNC4)cc3)nc12` (stereo not given) [Niraparib] (top concentration 10000 nM) was -1.02.
The same measure, in the same setting: as for `COc1ccc(C[C@H](NC(=O)[C@H](C)NC(=O)CN2CCOCC2)C(=O)N[C@@H](Cc2ccccc2)C(=O)[C@@]2(C)CO2)cc1` [ONX-0914] (top concentration 10000 nM), the figure is 7.7; as for `CC(=O)c1cnc2ccc(-c3cc(Cl)c(O)c(Cl)c3)nc2c1N[C@H]1CC[C@H](CN(C)C)CC1` [OTS167] (top concentration 1000 nM), 1.78; as for `COC(=O)C[C@](O)(CCCC(C)(C)O)C(=O)O[C@@H]1C(OC)=C[C@]23CCCN2CCc2cc4c(cc2[C@H]13)OCO4` [Omacetaxine] (top concentration 10000 nM), -1.88.

The test system of the next assay is REH. The description is as above. Conditions: 72 h.
`CCOC(=O)CCNc1cc(N2CCc3ccccc3CC2)nc(-c2ccccn2)n1` [GSK-J4] (top concentration 100000 nM): the “selective drug sensitivity score” value was -7.88.
For `Cc1cc(Nc2cc(CN3CCOCC3)c3nc(C)c(Cc4ccc(Cl)cc4F)n3n2)n[nH]1` [Gandotinib] (top concentration 10000 nM), the “selective drug sensitivity score” value came out at 4.98.
Still for that read-out and setting: as for `NC(=O)NO` [Hydroxyurea] (top concentration 1000000 nM), the figure is 4.06; as for `Cc1ccc(NC(=O)c2ccc(CN3CCN(C)CC3)cc2)cc1Nc1nccc(-c2cccnc2)n1` [Imatinib] (top concentration 10000 nM), 0.56; as for `CC(C)NC[C@@H](C(=O)N1CCN(c2ncnc3c2[C@H](C)C[C@H]3O)CC1)c1ccc(Cl)cc1` [Ipatasertib] (top concentration 10000 nM), 13.2.
In the case of `CCC(C)n1ncn(-c2ccc(N3CCN(c4ccc(OCC5COC(Cn6cncn6)(c6ccc(Cl)cc6Cl)O5)cc4)CC3)cc2)c1=O` (stereo not given) [Itraconazole] (top concentration 5000 nM), the “selective drug sensitivity score” value is -4.32.
On the same count and under the same terms, the value for `Cc1sc2c(c1C)C(c1ccc(Cl)cc1)=N[C@@H](CC(=O)OC(C)(C)C)c1nnc(C)n1-2` [JQ1] (top concentration 10000 nM) was -3.58; that for `CCNC(=O)c1noc(-c2cc(C(C)C)c(O)cc2O)c1-c1ccc(CN2CCOCC2)cc1` [Luminespib] (top concentration 1000 nM) was -1.5; that for `O=C(c1cccc(Cl)c1F)N1CCN(Cc2cccc(Nc3nccs3)n2)CC1` [MK-8745] (top concentration 10000 nM) was 11.6.
Same read-out and setting: the value for `Cc1ccc(NC(=O)c2ccc(CN3CCN(C)CC3)cc2)cc1Nc1nc(-c2cccnc2)cs1` [Masitinib] (top concentration 10000 nM) was -0.98; that for `CCN(CC)CCCC(C)Nc1c2ccc(Cl)cc2nc2ccc(OC)cc12` (stereo not given) [Mepacrine] (top concentration 50000 nM) was -3.3.
The same measure, in the same setting: as for `COc1ccc(-c2ccc3ncc4c(c3c2)n(-c2ccc(N3CCNCC3)c(C(F)(F)F)c2)c(=O)n4C)cn1` [NVP-BGT226] (top concentration 1000 nM), the figure is 8.22.
With `COc1nc(N)nc2c1ncn2[C@@H]1O[C@H](CO)[C@@H](O)[C@@H]1O` [Nelarabine] (top concentration 10000 nM), the “selective drug sensitivity score” value is -6.32.
Still for that read-out and setting: the value for `Cc1cn(-c2cc(NC(=O)c3ccc(C)c(Nc4nccc(-c5cccnc5)n4)c3)cc(C(F)(F)F)c2)cn1` [Nilotinib] (top concentration 10000 nM) was 2.5; that for `NC(=O)c1cccc2cn(-c3ccc(C4CCCNC4)cc3)nc12` (stereo not given) [Niraparib] (top concentration 10000 nM) was -0.02; that for `COc1ccc(C[C@H](NC(=O)[C@H](C)NC(=O)CN2CCOCC2)C(=O)N[C@@H](Cc2ccccc2)C(=O)[C@@]2(C)CO2)cc1` [ONX-0914] (top concentration 10000 nM) was -1.6.
Still for that read-out and setting: as for `CC(=O)c1cnc2ccc(-c3cc(Cl)c(O)c(Cl)c3)nc2c1N[C@H]1CC[C@H](CN(C)C)CC1` [OTS167] (top concentration 1000 nM), the figure is 2.18; as for `COC(=O)C[C@](O)(CCCC(C)(C)O)C(=O)O[C@@H]1C(OC)=C[C@]23CCCN2CCc2cc4c(cc2[C@H]13)OCO4` [Omacetaxine] (top concentration 10000 nM), -1.08.

A further assay has as its system SEM cells. The description is as above. The conditions noted are these: 72 h.
For the compound `CCOC(=O)CCNc1cc(N2CCc3ccccc3CC2)nc(-c2ccccn2)n1` [GSK-J4] (top concentration 100000 nM), the “selective drug sensitivity score” value is -8.58.
On to `Cc1cc(Nc2cc(CN3CCOCC3)c3nc(C)c(Cc4ccc(Cl)cc4F)n3n2)n[nH]1` [Gandotinib] (top concentration 10000 nM), for which the “selective drug sensitivity score” value came out at 10.5.
The same measure, in the same setting: as for `NC(=O)NO` [Hydroxyurea] (top concentration 1000000 nM), the figure is 5.36; as for `Cc1ccc(NC(=O)c2ccc(CN3CCN(C)CC3)cc2)cc1Nc1nccc(-c2cccnc2)n1` [Imatinib] (top concentration 10000 nM), 0.06.
Still for that read-out and setting: as for `CC(C)NC[C@@H](C(=O)N1CCN(c2ncnc3c2[C@H](C)C[C@H]3O)CC1)c1ccc(Cl)cc1` [Ipatasertib] (top concentration 10000 nM), the figure is 3.3.
For the compound `CCC(C)n1ncn(-c2ccc(N3CCN(c4ccc(OCC5COC(Cn6cncn6)(c6ccc(Cl)cc6Cl)O5)cc4)CC3)cc2)c1=O` (stereo not given) [Itraconazole] (top concentration 5000 nM), the “selective drug sensitivity score” value is -2.32.
The same measure, in the same setting: as for `Cc1sc2c(c1C)C(c1ccc(Cl)cc1)=N[C@@H](CC(=O)OC(C)(C)C)c1nnc(C)n1-2` [JQ1] (top concentration 10000 nM), the figure is 11.4; as for `CCNC(=O)c1noc(-c2cc(C(C)C)c(O)cc2O)c1-c1ccc(CN2CCOCC2)cc1` [Luminespib] (top concentration 1000 nM), 2.1; as for `O=C(c1cccc(Cl)c1F)N1CCN(Cc2cccc(Nc3nccs3)n2)CC1` [MK-8745] (top concentration 10000 nM), 18.3.

The values above are taken from the supplement of paper PMC8967900.
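Further: ALL cell lines in 384-well plates, five doses spanning 10,000-fold, each plate scaled between vehicle and 100 µmol/L benzalkonium chloride controls, sDSS an adapted area-under-curve metric.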
